Test results: article PMC4749533, “Scintillation proximity assay (SPA) as a new approach to determine a ligand’s kinetic profile. A case in point for the adenosine A1 receptor” (Purinergic Signalling, 2015)

Experiments:
Format in all cases: binding
[1] = target: T1, human adenosine A1 receptor (hA1R) (Homo sapiens, UniProt P30542); experiment: Competition association with [3H]-DPCPX, filtration assay; settings: 28 °C, 1 mM GTP present for LUF5834, CCPA, NECA; for Filtration assay RT: 1/k off
T1 construct: Steve Hill (University of Nottingham, UK); host or cells: CHO cells stably expressing hA1R; membrane preparation
T1 sequence (P30542 1-326): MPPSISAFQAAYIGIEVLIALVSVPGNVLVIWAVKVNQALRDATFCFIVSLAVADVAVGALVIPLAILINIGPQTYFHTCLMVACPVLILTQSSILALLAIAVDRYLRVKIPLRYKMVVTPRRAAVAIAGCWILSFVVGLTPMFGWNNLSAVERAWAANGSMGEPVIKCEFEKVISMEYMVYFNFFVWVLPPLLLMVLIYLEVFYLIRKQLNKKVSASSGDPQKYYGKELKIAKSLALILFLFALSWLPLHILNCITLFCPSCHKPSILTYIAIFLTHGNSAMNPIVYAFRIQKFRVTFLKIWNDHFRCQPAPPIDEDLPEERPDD
Protocol: (§1) The binding kinetics of unlabeled ligands was quantified using the competition association assay based on the theoretical framework by Motulsky and Mahan.
The competition association assay was initiated by adding membrane aliquots (5 μg per well) at different time points for a total of 2 h in the absence or presence of competing ligand.

[2] = target: T1, human adenosine A1 receptor (hA1R); experiment: Competition association with [3H]-DPCPX, SPA technology; settings: 28 °C, 1 mM GTP present for LUF5834, CCPA, NECA; for SPA RT: 1/k off
Protocol: as §1
The membrane-bead mixture was prepared as described under “Radioligand displacement experiments.” Once the membrane-bead mixture was added to the wells of an Isoplate-96 Microplate, measurements of radioligand bound to the receptor were started immediately and continued every 30 s for 2 h, using the 2450 MicroBeta^2 Plate Counter.

[3] = target: T1, human adenosine A1 receptor (hA1R); experiment: Radioligand displacement of [3H]-DPCPX, SPA technology; settings: CHO-hA1R membranes, one-state model
Protocol: (§2) Non-specific binding (NSB) was determined in the presence of 100 μM CPA. Each condition was measured in duplicate, and at least three individual experiments were performed.
A mixture of 5 μg protein membrane and 1 mg SPA bead was pre-coupled in a shaker (Vibrax VXR, IKA) in a volume of 50 μL of assay buffer at room temperature for 30 min. Then, together with the radioligand and competing ligands, the membrane-bead mixture was dispatched in an Isoplate-96 Microplate (Perkin Elmer, Groningen, the Netherlands), in a final reaction volume of 100 μL. The plate was incubated for 1 h inside the counting chamber of a 2450 MicroBeta^2 Plate Counter (Perkin Elmer, Groningen, the Netherlands) at the ambient temperature of 28 °C. The binding values were recorded in corrected counts per minute (CCPM).

[4] = target: T1, human adenosine A1 receptor (hA1R); experiment: Radioligand displacement of [3H]-DPCPX, filtration assay; settings: CHO-hA1R membranes, one-state model
Protocol: as §2
Membrane aliquots containing 5 μg protein were incubated together with the radioligand and competing ligands in a total volume of 100 μL assay buffer in a 96-well plate. After 1 h incubation at room temperature, the incubation was terminated by rapid vacuum filtration to separate the bound and free radioligand through 96-well GF/B filter plates using a PerkinElmer Filtermate-harvester (Perkin Elmer, Groningen, the Netherlands). Filters were subsequently washed three times with ice-cold wash buffer (50 mM Tris-HCl [pH 7.4], supplemented with 5 mM MgCl2). After 30 min of dehydration of the filter plate at 50 °C, the filter-bound radioactivity was determined by scintillation spectrometry using the 2450 MicroBeta^2 Plate Counter. The binding values were recorded in both counts per minute (CPM) and disintegrations per minute (DPM).

Structure (SMILES)	Filtration assay RT [1] [min]	SPA RT [2] [min]	Ki [3] [nM]	Filtration assay k off (k4) ([1]; […] [3H]-DPCPX) [s⁻¹]	Filtration assay k on (k3) ([1]; […] [3H]-DPCPX) [M⁻¹ s⁻¹]	Kd ([1]; k off/k on, read-out: Filtration assay Kinetic K D) [nM]	Ki [4] [nM]	SPA k off (k4) ([2]; […] [3H]-DPCPX) [s⁻¹]	SPA k on (k3) ([2]; […] [3H]-DPCPX) [M⁻¹ s⁻¹]	Kd ([2]; k off/k on, read-out: SPA Kinetic K D) [nM]
CCCn1c(=O)c2[nH]c(C3CCCC3)nc2n(CCCOC(=O)c2ccc(S(=O)(=O)F)cc2)c1=O [FSCPX, 8-cyclopentyl-3-N-[3-((3-(4-fluorosulphonyl)benzoyl)-oxy)-propyl]-1-N-propyl-xanthine]	167 ± 56	156 ± 31	–	–	–	–	–	–	–	–
CCCn1c(=O)c2[nH]c(C3CCCC3)nc2n(CCC)c1=O [DPCPX, 1,3-Dipropyl-8-cyclopentyl-xanthine]	3.7 ± 0.4	2.0 ± 0.1	–	–	–	–	–	–	–	–
N#Cc1c(N)nc(SCc2ncc[nH]2)c(C#N)c1-c1ccc(O)cc1 [LUF5834]	4.4 ± 0.5	2.0 ± 0.1	6.2 ± 0.5	0.00383 ± 0.0005	1.03e+06 ± 100000	3.7 ± 0.5	4.3 ± 0.6	0.00833 ± 0.00083	2.17e+06 ± 830000	3.9 ± 1.5
OC[C@H]1O[C@@H](n2cnc3c(NC4CCCC4)nc(Cl)nc32)[C@H](O)[C@@H]1O [CCPA, 2-chloro-N^6-cyclopentyladenosine]	0.68 ± 0.01	1.4 ± 0.1	–	–	–	–	–	–	–	–
